According to patent US20190343908A1, “Therapeutic Combination for the Treatment of Cancer” (Nerium Biotechnology Inc., priority 2011, published 2019):

Assays:
[1] = test system: A375 melanoma cancer cell line; test: Crystal Violet viability assay, A375; format: cell-based, human; details: for ABSORBANCE: 0.1 μg/mL cisplatin; for Average absorbance, CVE 24 h / Average absorbance, CVE 48 h / Average absorbance, CVE 72 h: A375 Run 1
Source text: (§1) Three different viability assays were chosen to complement each other and yielded results dependent on concentration and cell line: the Methyl Tetrazolium dye assay, the Sulforhodamine B fluorescent dye assay, and the Crystal Violet dye assay.
The Sulforhodamine B and Crystal Violet assays provide information about protein and were used to complement the Methyl-Tetrazolium dye assay. […] It is used for the quantification of cellular proteins of cultured cells. The assay using Crystal Violet, a dye that binds electrostatically to proteins and stains DNA, provides a reliable, simple assay for measuring viability of cells.
(§2) The Methyl Tetrazolium, Sulforhodamine B, and Crystal Violet assays were used to assess cell viabilities. The incubation times were 24 hours, 48 hours, and 72 hours. The Nerium oleander extract Anvirzel™ (a hot water extract of oleander obtained from Salud Integral, Honduras) was tested in concentrations ranging from 0.01 ng/mL to 10 ng/mL.
(§3) Cells were detached by trypsinization (Trypsin-0.25% EDTA, Invitrogen, 25200-072) during the logarithmic phase of culture growth and plated in 96-well plates (18.000 cells/well) (Corning, Costar 359) in a final volume of 200 μl of medium per well. […] The absorbance was measured after 24 hours, 48 hours, and 72 hours of incubation.
For the Crystal Violet assay, the medium was removed from the 96-well plates, the plates rinsed with PBS (Sigma, P3813) and then the cells were […] by the addition of 10% formalin (MERCK, 1.04003.2500) for 20 minutes at RT. Formalin was removed and 0.25% aqueous crystal violet (Sigma, HT901), dissolved in water, was added for 10 minutes at RT. Unbound Crystal Violet was rinsed by washing with water and finally 33% acetic acid was added to dissolve the dye.
(§4) The optical density of each plate was measured on a μQuant spectrophotometer and the data were analyzed with Gen5 software (μQuant Biomolecular Spectrophotometer MQX200 and Gen5™ Microplate Data Collection & Analysis software, BioTek® Instruments. Inc, April 2008). Absorbance was measured at 570 nm for all assays and a second wavelength was measured in order to subtract noise. For the Methyl-Tetrazolium assay this second wavelength was 630 nm and for the Sulforhodamine B and Crystal Violet assays it was 690 nm.

[2] = test system: HCT-116 (colorectal cancer); test: Methyl-Tetrazolium viability assay, HCT-116; format: cell-based, human; design: key: absorbance (optical density) at 570 nm, second wavelength subtracted; details: for Average MTT: HCT-116
Source text: as §1
The Methyl-Tetrazolium dye assay measures the activity of enzymes in mitochondria. The dye precursor is taken up by cells, where it undergoes reduction to the purple formazan. It measures only the mitochondrial activity and, thus, it is not always a reliable indication of whether the cells themselves are alive or dead, since even a recently dead cell has […] enzyme activity in mitochondria. Intracellular glucose concentration, pH, and time before assay all affect the measurements.
as §2, §3
For the Methyl-Tetrazolium assay, the dye (Sigma, M2128; 5 mg/mL, diluted in phosphate-buffered saline) was added to each well and plates were incubated for 3 hours at 37° C. After the end of the incubation period, the medium was discarded and the cells were rinsed with phosphate-buffered saline. Finally, the formazan crystals were dissolved in dimethylsulphoxide (Sigma, D4540).
as §4

N.N.[Cl][Pt][Cl] [cisplatin]
ABSORBANCE ([1]; A375, 48 h): 1.304
ABSORBANCE ([1]; A375, 72 h): 0.663
Average absorbance, CVE 24 h ([1]; 0.1 μg/ml CDDP): 0.607
Average absorbance, CVE 48 h ([1]; 0.1 μg/ml CDDP): 1.304
Average absorbance, CVE 72 h ([1]; 0.1 μg/ml CDDP): 0.663
Average absorbance, CVE 24 h ([1]; 1 μg/ml CDDP): 0.277
Average absorbance, CVE 48 h ([1]; 1 μg/ml CDDP): 0.396
Average absorbance, CVE 72 h ([1]; 1 μg/ml CDDP): 0.178
Average absorbance, CVE 24 h ([1]; 10 μg/ml CDDP): 0.32
Average absorbance, CVE 48 h ([1]; 10 μg/ml CDDP): 0.405
Average absorbance, CVE 72 h ([1]; 10 μg/ml CDDP): 0.282
Average absorbance, CVE 24 h ([1]; 100 μg/ml CDDP): 0.329
Average absorbance, CVE 48 h ([1]; 100 μg/ml CDDP): 0.288
Average absorbance, CVE 72 h ([1]; 100 μg/ml CDDP): 0.311
Average absorbance CVE ([1]; A375 Run 2, 24 h, 0.1 μg/ml CDDP): 0.603
Average absorbance CVE ([1]; A375 Run 2, 24 h, 1 μg/ml CDDP): 0.197
Average absorbance CVE ([1]; A375 Run 2, 24 h, 10 μg/ml CDDP): 0.246
Average absorbance CVE ([1]; A375 Run 2, 24 h, 100 μg/ml CDDP): 0.241
Average absorbance CVE ([1]; A375 Run 2, 48 h, 0.1 μg/ml CDDP): 1.204
Average absorbance CVE ([1]; A375 Run 2, 48 h, 1 μg/ml CDDP): 0.605
Average absorbance CVE ([1]; A375 Run 2, 48 h, 10 μg/ml CDDP): 0.514
Average absorbance CVE ([1]; A375 Run 2, 48 h, 100 μg/ml CDDP): 0.238
Average absorbance CVE ([1]; A375 Run 2, 72 h, 0.1 μg/ml CDDP): 1.312
Average absorbance CVE ([1]; A375 Run 2, 72 h, 1 μg/ml CDDP): 1.001
Average absorbance CVE ([1]; A375 Run 2, 72 h, 10 μg/ml CDDP): 0.729
Average absorbance CVE ([1]; A375 Run 2, 72 h, 100 μg/ml CDDP): 0.293
Average absorbance CVE ([1]; A375 Run 3, 24 h, 0.1 μg/ml CDDP): 0.856
Average absorbance CVE ([1]; A375 Run 3, 24 h, 1 μg/ml CDDP): 0.655
Average absorbance CVE ([1]; A375 Run 3, 24 h, 10 μg/ml CDDP): 0.529
Average absorbance CVE ([1]; A375 Run 3, 24 h, 100 μg/ml CDDP): 0.224
Average absorbance CVE ([1]; A375 Run 3, 48 h, 0.1 μg/ml CDDP): 0.92
Average absorbance CVE ([1]; A375 Run 3, 48 h, 1 μg/ml CDDP): 0.375
Average absorbance CVE ([1]; A375 Run 3, 48 h, 10 μg/ml CDDP): 0.309
Average absorbance CVE ([1]; A375 Run 3, 48 h, 100 μg/ml CDDP): 0.252
Average absorbance CVE ([1]; A375 Run 3, 72 h, 0.1 μg/ml CDDP): 0.961
Average absorbance CVE ([1]; A375 Run 3, 72 h, 1 μg/ml CDDP): 0.388
Average absorbance CVE ([1]; A375 Run 3, 72 h, 10 μg/ml CDDP): 0.344
Average absorbance CVE ([1]; A375 Run 3, 72 h, 100 μg/ml CDDP): 0.24
MTT Average ([2]; HCT-116, Run 3, 24 h, 0.1 μg/ml CDDP): 0.16
MTT Average ([2]; HCT-116, Run 3, 24 h, 1 μg/ml CDDP): 0.041
MTT Average ([2]; HCT-116, Run 3, 24 h, 10 μg/ml CDDP): 0.09
MTT Average ([2]; HCT-116, Run 3, 24 h, 100 μg/ml CDDP): 0.044
MTT Average ([2]; HCT-116, Run 3, 48 h, 0.1 μg/ml CDDP): 0.302
MTT Average ([2]; HCT-116, Run 3, 48 h, 1 μg/ml CDDP): 0.039
MTT Average ([2]; HCT-116, Run 3, 48 h, 10 μg/ml CDDP): 0.108
MTT Average ([2]; HCT-116, Run 3, 48 h, 100 μg/ml CDDP): 0.037
MTT Average ([2]; HCT-116, Run 3, 72 h, 0.1 μg/ml CDDP): 0.385
MTT Average ([2]; HCT-116, Run 3, 72 h, 1 μg/ml CDDP): 0.041
MTT Average ([2]; HCT-116, Run 3, 72 h, 10 μg/ml CDDP): 0.147
MTT Average ([2]; HCT-116, Run 3, 72 h, 100 μg/ml CDDP): 0.043
Average MTT ([2]; Run 1, 24 h, 0.1 μg/ml CDDP): 0.215
Average MTT ([2]; Run 1, 24 h, 1 μg/ml CDDP): 0.037
Average MTT ([2]; Run 1, 24 h, 10 μg/ml CDDP): 0.072
Average MTT ([2]; Run 1, 24 h, 100 μg/ml CDDP): 0.038
Average MTT ([2]; Run 1, 48 h, 0.1 μg/ml CDDP): 0.184
Average MTT ([2]; Run 1, 48 h, 1 μg/ml CDDP): 0.027
Average MTT ([2]; Run 1, 48 h, 10 μg/ml CDDP): 0.054
Average MTT ([2]; Run 1, 48 h, 100 μg/ml CDDP): 0.031
Average MTT ([2]; Run 1, 72 h, 0.1 μg/ml CDDP): 0.332
Average MTT ([2]; Run 1, 72 h, 1 μg/ml CDDP): 0.03
Average MTT ([2]; Run 1, 72 h, 10 μg/ml CDDP): 0.033
Average MTT ([2]; Run 1, 72 h, 100 μg/ml CDDP): 0.031
Average MTT ([2]; Run 2, 24 h, 0.1 μg/ml CDDP): 0.111
Average MTT ([2]; Run 2, 24 h, 1 μg/ml CDDP): 0.053
Average MTT ([2]; Run 2, 24 h, 10 μg/ml CDDP): 0.081
Average MTT ([2]; Run 2, 24 h, 100 μg/ml CDDP): 0.072
Average MTT ([2]; Run 2, 48 h, 0.1 μg/ml CDDP): 0.179
Average MTT ([2]; Run 2, 48 h, 1 μg/ml CDDP): 0.044
Average MTT ([2]; Run 2, 48 h, 10 μg/ml CDDP): 0.045
Average MTT ([2]; Run 2, 48 h, 100 μg/ml CDDP): 0.04
Average MTT ([2]; Run 2, 72 h, 0.1 μg/ml CDDP): 0.296
Average MTT ([2]; Run 2, 72 h, 1 μg/ml CDDP): 0.054
Average MTT ([2]; Run 2, 72 h, 10 μg/ml CDDP): 0.045
Average MTT ([2]; Run 2, 72 h, 100 μg/ml CDDP): 0.037
